Reference: patent publication US20150359731A1, “PHYLLANTHUS ACIDUS EXTRACTS AND METHODS OF USE” (AVON PRODUCTS, INC, priority 2013, published 2015)

Test system: dorsal forearm skin of healthy female Caucasian subjects with mild to moderate photo damage
Experiment: In vivo biopsy, histology of treated dorsal forearm skin
Design: species or system human
Details: 3 weeks semi-occlusion patch, 2 mg/cm^2, extract 0.33%, retinol 0.05% active
Method: Healthy female Caucasian subjects aged 30-65, with skin type II or III and mild to moderate photo damage, were treated on the dorsal forearm for 3 weeks (3 consecutive rounds of 5×24 hour) under semi-occlusion patches. Test articles including active ingredients, vehicle controls, and retinol were applied in a randomized allocation on 6 sites on each forearm. The application dose was 2 mg/cm^2. After 3 week treatment, a 2 mm punch biopsy was obtained from each treatment site and fixed in 10% buffered formalin. Tissue samples then embedded in paraffin, sectioned (5 μm thickness), and stained for skin markers after re-hydration. […] Retinol at a active concentration of 0.05% was used a positive control. Retinol use at a 0.05% active concentration in the semi-occlusion patch vehicle formulation yielded a visual score of approximately 0.56 out of a 4 point scale in HE staining (measuring hematoxylin and eosin staining, an indication of viable epidermal thickness and health) with 63.6% of the subjects showing an improvement; a visual score of 0.6 out of a 4 point scale in M-TC staining (Masson's trichrome staining, assessing total mature fiber-forming collagen in the dermis—mainly Collagen I, […] and Collagen V) with 51.6% of the subjects showing an improvement; a visual score of 0.52 out of a 4 point scale for pro-Col (measuring new synthesis of Collagen I by skin fibroblasts in the dermis) with 51.6% of the subjects showing an improvement; and a visual score of 0.57 out of a 4 point scale for HA (measuring level of hyaluronic acid in both dermis and epidermis) with 50% of the subjects showing an improvement.

For `CC1=C(/C=C/C(C)=C/C=C/C(C)=C/CO)C(C)(C)CCC1` [Retinol], the “subjects showing an improvement, HA” value was 50%, the “subjects showing an improvement, HE staining” value was 63.6% and the “subjects showing an improvement, M-TC staining” value was 51.6%. The “subjects showing an improvement, pro-Col” value was 51.6%, the “visual score for HA (level of hyaluronic acid in both dermis and epidermis)” value (out of a 4 point scale) was 0.57 and the “visual score for pro-Col (new synthesis of Collagen I by skin fibroblasts in the dermis)” value (out of a 4 point scale) was 0.52. The “visual score in HE staining (viable epidermal thickness and health)” value (out of a 4 point scale) was “approximately 0.56” and the “visual score in M-TC staining (total mature fiber-forming collagen in the dermis)” value (out of a 4 point scale) was 0.6.
